Experiments:
IGF-I levels = assay: Peak IGF-I levels in males and females before and after administration; assay type: in vivo, human
Source text: IGF-I is directly dependent upon the secretion of HGH by the pituitary gland, so therefore there is a direct linkage between increased secretion of HGH and increased production of IGF-I. Table II presents the effects of the low dose at high frequency human growth hormone administration (low dose-high frequency) contemplated by the invention on IGF-I (somatomedin C) blood levels. FIGS. 8 and 9 present the peak IGF-I levels in males and females, respectively, before and after administration of […]. FIGS. 8 and 9 show mean, minimum and maximum, and 25, 50, and 75 percentile for 204 males and 91 females, respectively.
The method of determining the level of the select group of hormones may be accomplished by a simple blood test. A patients' blood is evaluated for the hormone levels of the select group of hormones and those levels are compared to the optimal or predetermined physiological levels set forth in Table I. Based on the comparison of a patient's hormone levels with the optimal or predetermined physiological levels, a regimen is established for the patient for the replenishment of the level of deficient hormones to optimal physiological levels. It is further contemplated, that after the initial evaluation and the establishment of the regimen, a patient is monitored every 30 days, by a similar blood test, until the patient attains the optimal or predetermined physiological level, and the dosages of hormone supplementation are adjusted accordingly. Once the target levels are established, the regimen directs that the patient continue to follow the established dosage of supplemental hormones indefinitely to maintain the optimal or predetermined physiological levels. Periodic blood tests are subsequently administered to assure that the optimal or predetermined physiological levels are maintained.

[1] = tested on: adult female mice having induced EAE; conditions: 0.6 mg subcutaneously over a ten day period; vs placebo; cited from earlier work
[2] = tested on: Somatomedin C Blood Levels; assay: Somatomedin C blood levels before and after low dose-high frequency human growth hormone administration; assay type: in vivo; conditions: 47 patients; after vs before hGH
Source text: IGF-I is directly dependent upon the secretion of HGH by the pituitary gland, so therefore there is a direct linkage between increased secretion of HGH and increased production of IGF-I. Table II presents the effects of the low dose at high frequency human growth hormone administration (low dose-high frequency) contemplated by the invention on IGF-I (somatomedin C) blood levels. FIGS. 8 and 9 present the peak IGF-I levels in males and females, respectively, before and after administration of […]. FIGS. 8 and 9 show mean, minimum and maximum, and 25, 50, and 75 percentile for 204 males and 91 females, respectively. The method of the invention also contemplates that the HGH is administered in keeping with the way the pituitary secretes HGH naturally. The low dose-high frequency method mimics the pituitary gland. The pituitary secretes HGH 24 hours a day, with the peaks during the first two hours of sleep. The method contemplates that the patients take lower doses more frequently to try to mimic the natural rhythm of the body as much as possible. The invention contemplates that the patients take HGH injections at least twice daily. A preferred regimen calls for subcutaneous injections of doses less than 0.5 mg per day (approximately 1-3 I.U.), administered twice daily. Typical doses for this regimen range from 4 units per week to 8 units per week.

## Insulin-like Growth Factor-I [IGF-I]
IGF-I levels; 91 females
  Peak IFG levels FEMALES CHANGE, 25%ile: 26
  Peak IFG levels FEMALES CHANGE, 50%ile: 72
  Peak IFG levels FEMALES CHANGE, 75%ile: 128
  Peak IFG levels FEMALES CHANGE, MAX: 231
  Peak IFG levels FEMALES CHANGE, MEAN: 74.0
  Peak IFG levels FEMALES CHANGE, MEDIAN: 72
  Peak IFG levels FEMALES CHANGE, MIN: −93
IGF-I levels; 91 females, before 111
  Peak IFG levels FEMALES AFTER, 25%ile: 177
IGF-I levels; 91 females, before 164
  Peak IFG levels FEMALES AFTER, 50%ile: 240
IGF-I levels; 91 females, before 205
  Peak IFG levels FEMALES AFTER, 75%ile: 294
IGF-I levels; 91 females, before max 311
  Peak IFG levels FEMALES AFTER, MAX: 378
IGF-I levels; 91 females, before mean 162.2, mean 133.4 days
  Peak IFG levels FEMALES AFTER, MEAN: 236.3
IGF-I levels; 91 females, before median 154
  Peak IFG levels FEMALES AFTER, MEDIAN: 240
IGF-I levels; 91 females, before min 41
  Peak IFG levels FEMALES AFTER, MIN: 52
IGF-I levels; 204 males
  Peak IFG levels MALES CHANGE, 25%ile: 24
  Peak IFG levels MALES CHANGE, 50%ile: 76
  Peak IFG levels MALES CHANGE, 75%ile: 125
  Peak IFG levels MALES CHANGE, MAX: 258
  Peak IFG levels MALES CHANGE, MEAN: 74.4
  Peak IFG levels MALES CHANGE, MEDIAN: 75.5
IGF-I levels; 204 males, before 147
  Peak IFG levels MALES AFTER, 25%ile: 217
IGF-I levels; 204 males, before 183
  Peak IFG levels MALES AFTER, 50%ile: 273
IGF-I levels; 204 males, before 231
  Peak IFG levels MALES AFTER, 75%ile: 325
IGF-I levels; 204 males, before max 361
  Peak IFG levels MALES AFTER, MAX: 396
IGF-I levels; 204 males, before mean 192.3, mean 118.5 days
  Peak IFG levels MALES AFTER, MEAN: 266.7
IGF-I levels; 204 males, before median 183
  Peak IFG levels MALES AFTER, MEDIAN: 272.5
IGF-I levels; 204 males, before min 21
  Peak IFG levels MALES AFTER, MIN: 63
[1]
  Clinical deficits in EAE mice: reduced deficits
  Lesions in EAE mice: reduced numbers and sizes of inflammatory, demyelinating and demyelinated lesions

## human growth hormone [hGH]
[2]
  Somatomedin C Blood Levels Increase, Mean: 61.0%

From patent publication US20010012832A1, “Method of hormone treatment for patients with symptoms consistent with multiple sclerosis” (priority 1999, published 2001)
